Results: ChEMBL document CHEMBL3638917, “Triazine derivatives” (2015)

Biological target: T1, cAMP and cAMP-inhibited cGMP 3',5'-cyclic phosphodiesterase 10A (Rattus norvegicus, UniProt Q9QYJ6)
T1 sequence (Q9QYJ6 whole entry): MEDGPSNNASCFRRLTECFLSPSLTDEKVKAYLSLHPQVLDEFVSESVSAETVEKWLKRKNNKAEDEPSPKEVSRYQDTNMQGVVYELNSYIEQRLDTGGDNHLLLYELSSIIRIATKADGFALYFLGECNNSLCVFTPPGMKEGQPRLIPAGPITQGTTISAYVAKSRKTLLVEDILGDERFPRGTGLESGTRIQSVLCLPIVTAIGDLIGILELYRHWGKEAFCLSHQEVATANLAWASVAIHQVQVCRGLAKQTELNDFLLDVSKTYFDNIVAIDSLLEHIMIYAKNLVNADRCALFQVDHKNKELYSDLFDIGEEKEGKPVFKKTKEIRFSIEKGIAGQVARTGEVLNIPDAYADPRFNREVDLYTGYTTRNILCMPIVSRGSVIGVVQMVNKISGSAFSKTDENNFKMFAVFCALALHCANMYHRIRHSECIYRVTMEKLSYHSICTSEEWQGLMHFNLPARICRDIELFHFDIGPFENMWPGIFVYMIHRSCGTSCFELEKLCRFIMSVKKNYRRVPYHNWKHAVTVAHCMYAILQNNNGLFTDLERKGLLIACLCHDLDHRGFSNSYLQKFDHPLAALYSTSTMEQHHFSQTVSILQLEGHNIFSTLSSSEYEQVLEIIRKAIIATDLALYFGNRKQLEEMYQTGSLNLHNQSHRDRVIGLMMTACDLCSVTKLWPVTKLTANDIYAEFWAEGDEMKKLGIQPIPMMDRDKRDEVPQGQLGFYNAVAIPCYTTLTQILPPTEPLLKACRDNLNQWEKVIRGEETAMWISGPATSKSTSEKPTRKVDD
Experiment: The products of Examples 1-175 were tested in the assay described below.PDE10 activity was measured using a scintillation assay (SPA-based method) similar to that previously described by Seeger, T. F. et al., Brain Research 985 (2003) 113-126. The compounds' relative activity as PDE10 inhibitors was investigated by assaying a fixed amount of enzyme in the presence of the test compound and low substrate concentration (cAMP) such that an IC50 could be determined. […] The assay is performed in a 384-well format with 50 uL assay buffer (50 mM TRIS pH 7.5; 1.3 mM MgCl2; 0.01% Brij) containing enough PDE10.

IC50: 2.7 nM
Compound: CCc1nn(C)c2c1CN(c1ncnn3c(C)nc(-c4cccc(OC)c4)c13)CC2
